{"source": "patent EP2050758A1", "about": "“New polypeptides and uses thereof in cancer therapy” (INSTITUT NATIONAL DE LA SANTE ET DE LA RECHERCHE MEDICALE …, priority 2007, dated 2009)", "key": {"ATPase domain of HSP70": {"test_system": "ATPase domain of HSP70", "conditions": "MAMELAK & LINGWOOD, J. Biol. Chem. 2001; cited from earlier work"}, "B16F10 melanoma cells": {"test_system": "B16F10 melanoma cells", "assay": "Tumor growth of aptamer-expressing B16F10 cells injected subcutaneously into syngeneic mice", "type": "in vivo, C57/B16 mice", "conditions": "mice bearing control tumors (wt B16F10 and B16F10-A0), cisplatin 10 mg/kg", "excerpt": "To determine whether the chemosensitizing effect of A8 and A18 aptamers observed in vitro was also detected in vivo, mouse B16F10 melanoma cells were stably transfected with the aptamer expression vectors (A8, A18 and, as a control, A0). Stably transfected cells were selected using G418 (SIGMA) according to the manufacturer's instruction.\nExponentially growing B16F10 cells (wild type and aptamers-transfected) were harvested, washed in PBS, and resuspended in RPMI medium without foetal bovine serum (FBS) to a concentration of 2x10^5 B16F10 cells in 100 µl. B16F10 cells were then injected subcutaneously into the right side of syngeneic C57/B16 mice (9 mice/group). Next, some mice bearing B16F10-A0, B16F10-A8 or B16F10-A18 tumors were treated with cisplatin (10 mg/kg), given intraperitonealy as a single dose at day 6 after tumor cells injection. Tumor volume was evaluated for all mice every two days, using a caliper to measure two perpendicular diameters."}}}
{"compound": "3'-sulfogalactosylglycerolipid [SGG]", "values": [{"measurement": "binding to the ATPase domain of HSP70", "setting": "ATPase domain of HSP70", "value": "known to bind"}]}
{"compound": "N.N.[Cl][Pt][Cl]", "note": "[cisplatin]", "values": [{"measurement": "effect of cisplatin treatment on the size of the tumors", "setting": "B16F10 melanoma cells", "value": "slightly reduced the size of the tumors"}]}
{"compound": "3'-sulfogalactosyl ceramide [SGC]", "values": [{"measurement": "binding to the ATPase domain of HSP70", "setting": "ATPase domain of HSP70", "value": "known to bind"}]}
